Assay results taken from paper PMC6864482, “Novel C7-Substituted Coumarins as Selective Monoamine Oxidase Inhibitors: Discovery, Synthesis and Theoretical Simulation” (Molecules, 2019).

How the values were obtained:
hMAO-B = biological target: T1, hMAO-B (Homo sapiens, UniProt P27338); conditions: previously identified BRS-3D hits, cited from earlier work
T1 sequence (P27338 1-520): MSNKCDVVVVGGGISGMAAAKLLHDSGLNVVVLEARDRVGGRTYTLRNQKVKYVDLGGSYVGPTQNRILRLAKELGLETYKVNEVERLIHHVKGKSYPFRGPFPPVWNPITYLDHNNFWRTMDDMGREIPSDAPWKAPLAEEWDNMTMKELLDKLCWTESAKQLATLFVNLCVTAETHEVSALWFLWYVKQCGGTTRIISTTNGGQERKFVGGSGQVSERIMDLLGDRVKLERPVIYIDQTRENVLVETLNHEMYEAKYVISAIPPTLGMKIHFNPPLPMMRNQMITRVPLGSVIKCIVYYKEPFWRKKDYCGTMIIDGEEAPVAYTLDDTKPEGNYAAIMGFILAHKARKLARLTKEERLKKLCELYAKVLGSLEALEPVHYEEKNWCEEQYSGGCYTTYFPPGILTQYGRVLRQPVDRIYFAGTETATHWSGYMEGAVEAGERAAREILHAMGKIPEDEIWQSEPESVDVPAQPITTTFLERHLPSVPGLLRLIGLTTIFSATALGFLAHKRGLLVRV

hMAO-A = biological target: T2, hMAO-A (Homo sapiens, UniProt P21397); conditions: previously identified BRS-3D hits, cited from earlier work
T2 sequence (P21397 1-527): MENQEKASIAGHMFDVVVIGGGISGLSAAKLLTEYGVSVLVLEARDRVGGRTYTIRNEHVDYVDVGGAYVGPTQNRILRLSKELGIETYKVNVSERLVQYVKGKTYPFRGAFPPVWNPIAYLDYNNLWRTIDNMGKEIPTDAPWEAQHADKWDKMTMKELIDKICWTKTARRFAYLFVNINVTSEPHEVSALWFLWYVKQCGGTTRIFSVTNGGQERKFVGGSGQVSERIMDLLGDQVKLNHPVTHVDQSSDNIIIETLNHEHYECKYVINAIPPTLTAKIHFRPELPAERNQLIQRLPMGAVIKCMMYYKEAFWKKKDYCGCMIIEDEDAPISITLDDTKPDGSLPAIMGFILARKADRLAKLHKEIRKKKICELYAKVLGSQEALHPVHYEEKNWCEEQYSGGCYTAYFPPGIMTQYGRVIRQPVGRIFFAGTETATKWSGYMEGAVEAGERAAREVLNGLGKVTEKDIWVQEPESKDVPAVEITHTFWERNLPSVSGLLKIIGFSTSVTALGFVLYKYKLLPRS

[1] = pIC50 = −log(IC50), listed as M43 (7a)

In the case of `Cc1cc(=O)oc2cc(Oc3nnc(-c4ccccc4)s3)ccc12` [M43, 4-Methyl-7-((5-phenyl-1,3,4-thiadiazol-2-yl)oxy)-2H-chromen-2-one], the “MAO-B Avg. Inh% at 10 uM” value (hMAO-B; 10 μM) is given as 96%, the “MAO-B pIC50” value (hMAO-B; [1]) is given as 6.4 and the IC50 (hMAO-B; read-out: MAO-B IC50) is given as 360 nM. For the same molecule, the “MAO-A pIC50” value (hMAO-A; [1]) was 6.8, the IC50 (hMAO-A; read-out: MAO-A IC50) was 160 nM and the melting point was 124 to 125 °C.
